Measurements reported in patent US20140275224A1, “CYTOSINE DEAMINASE MODULATORS FOR ENHANCEMENT OF DNA TRANSFECTION” (Regents of the University of Minnesota, priority 2010, published 2014).

Experiments:
[1] = tested on: A3 DNA deaminase (A3A or A3G); assay: fluorescence-based DNA deamination assay, high-throughput screening; type: biochemical, human; conditions: 10 μM library compound, inhibitors inhibit the reaction by 50% or more and reproduce in dose response
Source text: MN132, MN137, MN141, and MN152 are a few exemplary molecules identified from high-throughput screening. To screen for inhibitors of A3A or A3G DNA cytosine deaminase activity, a previously described fluorescence-based assay has been modified, optimized, and miniaturized (FIG. 2A) (30). C-to-U by A3A or A3G creates a substrate uracil that is excised by UDG, and the resulting abasic site is attacked by hydroxide to release 6-FAM fluorescence from the TAMRA quench. Recombinant A3A- or A3G-myc-His purified from a HEK-293-based cell line is incubated with uracil DNA glycosylase (UDG), 10 μM library compound (or a DMSO control), and a cytosine-containing, single-stranded DNA substrate attached to a 5′ 6-FAM fluorescent tag and a 3′ TAMRA quench molecule. During a 2 hr incubation period, the A3 protein deaminates 5′-C-to-U and UDG excises the uracil to leave an abasic site. DNA cleavage by NaOH produces a fluorescent signal by releasing the 6-FAM fluorophore from the TAMRA quench. This assay is highly sensitive and reproducible (A3G Z score=0.86 and A3A Z score=0.88 on the University of Minnesota ITDD HTS platform). […]
Protocols were developed for purification of A3-myc-His proteins from HEK-293 cells. […] High (80-90%) purity is achieved routinely, and all proteins show robust activity in our fluorescence-based C-to-U deaminase assay as shown in FIGS. 4C and 4D.

A3A = molecular target: T1, A3A (Homo sapiens, UniProt P31941); assay: DNA deaminase assay in A3A-expressing HEK-293T cell extracts; type: biochemical; conditions: A3A-transfected HEK-293T total cell extracts, compared with recombinant protein, FIG. 5
T1 construct: expressed in transfected cells; host or cells: HEK-293T
Protocol: Like the recombinant protein assay described above, assays with A3-containing cell extracts are done in 96 and 384 well formats and the read-out is relative fluorescence units.
The deaminase activity in the lysates was determined using a FRET-based assay essentially as described^59. […] FRET occurs between the fluorophores, decreasing FAM fluorescence. If cytidine deaminase activity is present in the lysates, the single cytidine is converted to uridine, which is then excised by uracil DNA glycosylase (NEB). Resulting abasic sites are cleaved by incubating reactions for 2 min at 95° C. Once cleaved, the FAM and TAMRA labels are physically separated, FRET diminishes, and FAM fluorescence increases. Fluorescence is measured on the Lightcycler 480 instrument (Roche).

primary human monocytes = primary human monocytes nucleofected with a GFP expression vector; type: cell-based; conditions: 3 days post-transfection, flow cytometry, versus DMSO (not detectably transfected), FIG. 7B
Source text: Primary human monocytes were purified by negative selection and nucleofected with a GFP expression vector. Since these cells naturally express A3A, transfection with A3A expression plasmids was not necessary. The pool of transfected cells was split into wells containing media plus vehicle control or MN132. A variety of different cell lines (lymphoid, liver, breast, brain, epithelial, and colorectal origins) and distinct primary white blood cell types (T, B, monocyte, neutrophil, etc.) can be used in these experiments to test the central hypothesis that the endogenous A3s constitute a general barrier to foreign DNA and genetic engineering.

[2] = molecular target: E. Coli uracil-DNA glycosylase (Escherichia coli, UniProt P12295); assay: control assay with UDG (U-containing oligos, without A3s); type: biochemical; conditions: specificity control, FIG. 2C
Source text: All newly synthesized compounds can be tested in dose response experiments against recombinant A3A and A3G to identify the sub-library_compounds that have dual-inhibitory activity like the parental molecules.
These initial experiments can also identify the subset with improved IC50 values. Second, all confirmed inhibitors can be tested against the other five recombinant human A3 proteins (A3BCDEFH) to identify broader-spectrum inhibitors. Third, reactions can be performed with U-containing oligos and UDG (i.e., without A3s) to re-confirm that all new inhibitors have not become general enzyme inhibitors. These assays can be carried out in 96 or 384 well plate formats. HEK-293T cells were transfected with an A3A expression plasmid, and total cell extracts were used in DNA deaminase assays. Non-transfected or A3A-E72A catalytic mutant transfected cell extracts show no activity (28).

T1 sequence (P31941 whole entry): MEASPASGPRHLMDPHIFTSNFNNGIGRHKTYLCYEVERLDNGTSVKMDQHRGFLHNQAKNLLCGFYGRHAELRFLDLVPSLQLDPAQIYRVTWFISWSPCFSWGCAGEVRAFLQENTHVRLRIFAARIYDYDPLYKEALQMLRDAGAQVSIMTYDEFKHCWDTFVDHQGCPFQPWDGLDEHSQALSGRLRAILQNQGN
E. Coli uracil-DNA glycosylase, sequence (P12295 whole entry): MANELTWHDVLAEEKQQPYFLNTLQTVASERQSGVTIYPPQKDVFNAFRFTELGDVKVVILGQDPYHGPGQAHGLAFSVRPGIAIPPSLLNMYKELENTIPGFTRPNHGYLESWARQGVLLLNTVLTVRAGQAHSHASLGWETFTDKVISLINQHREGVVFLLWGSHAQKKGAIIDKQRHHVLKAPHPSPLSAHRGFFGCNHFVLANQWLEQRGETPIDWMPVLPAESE

Row | SMILES | inhibition of A3 DNA deaminase activity in vitro [1] | IC50 values in cell extracts (A3A) | percentage of cells expressing GFP (primary human monocytes) | block of UDG [2]
1 | Cc1ccc(-c2cc(C(=O)Nc3nnc(-c4ccncc4)s3)c3ccccc3n2)o1 [MN132, 2-(5-methylfuran-2-yl)-N-(5-(pyridin-4-yl)-1,3,4-thiadiazol-2-yl)quinoline-4-carboxamide] | inhibit A3 DNA deaminase activity in vitro | higher | dose dependent increases | –
2 | O=C(O)C1=CC(=C(c2ccc(O)c(C(=O)O)c2)c2ccc(O)c(C(=O)O)c2)C=CC1=O [ATA] | – | – | – | lone exception
